Reference: patent US10874745B2, “Antimicrobial peptides and methods of treating gram-negative pathogens: polar and non-polar face analogs” (priority 2017, dated 2020)
Values after ≈ are worked out from the molar mass of the structure shown. Values joined by “and” are separate entries in the source; they are usually repeats but may differ in a detail not shown here. Equal values may be shown once. Read-outs that look alike come from different tables or passages of the source. Non-standard residues stand in square brackets, D forms with d. Residues, ends and D or L forms follow the SMILES beside them. dDab = NCC[C@@H](N)C(=O)O

Key:
Hemolytic activity = format: cell-based, human; conditions: 1% human erythrocytes (red blood cells), pH 7.4
Procedure: (§1) Hemoglobin release was determined spectrophotometrically at 570 nm. […] […] […] With the peptides used in this study the inventors used the HC30/MIC ratio value to calculate the therapeutic index.

human red blood cells = test: Hemolytic activity; format: cell-based
Procedure: as §1

[1] = system: A. baumannii strains resistant to Polymyxin B and Colistin; format: cell-based

SMILES | HC50 at 18 h (Hemolytic activity; human) | HC50 (human red blood cells) | MIC ([1]; strain MB9941 (Table 9C)) | MIC ([1]; strain MB9949 (Table 9C)) | MIC ([1]; strain MB9951 (Table 9C)) | MIC ([1]; strain MB9952 (Table 9C)) | MIC ([1]; strain MB9953 (Table 9C)) | MIC ([1]; strain MB9955 (Table 9C)) | MIC ([1]; strain MB9963 (Table 9C)) | HC50 at 18 h (Hemolytic activity; 50% hemolysis of human red blood cells after 18 hours at 37° C., read-out: HC50) | Hemolysis of human red blood cells, in words (human red blood cells; FIG. 10)
CC(=O)N[C@H](CCCCN)C(=O)N[C@H](CC(C)C)C(=O)N[C@H](CCCCN)C(=O)N[C@H](CO)C(=O)N[C@H](CC(C)C)C(=O)N[C@H](CC(C)C)C(=O)N[C@H](CCCCN)C(=O)N[C@@H](C(=O)N[C@H](CC(C)C)C(=O)N[C@H](CO)C(=O)N[C@H](C)C(=O)N[C@H](C)C(=O)N[C@H](CCCCN)C(=O)N[C@H](CCCCN)C(=O)N[C@H](CCCCN)C(=O)N[C@H](CCCCN)C(=O)N[C@H](CC(C)C)C(=O)N[C@H](C)C(=O)N[C@@H](C(=O)N[C@H](CC(C)C)C(=O)N[C@H](CC(C)C)C(=O)N[C@H](CCCCN)C(=O)N[C@H](C)C(=O)N[C@H](CC(C)C)C(=O)N[C@H](CO)C(=O)N[C@H](CCCCN)C(N)=O)[C@H](C)O)[C@H](C)O [Peptide D88, Ac-KL(Lys)SLL(Lys)TLSAAK(Lys)(Lys)KLATLL(Lys)ALS(Lys)-amide] (Ac-[dK][dL][dK][dS][dL][dL][dK][dT][dL][dS][dA][dA][dK][dK][dK][dK][dL][dA][dT][dL][dL][dK][dA][dL][dS][dK]-NH2) | 231 µg/mL and 80.6 µM | 80.6 µM | 0.7 µM (≈ 2.01 µg/mL) | 0.7 µM (≈ 2.01 µg/mL) | 0.3 µM (≈ 0.86 µg/mL) | 0.3 µM (≈ 0.86 µg/mL) | 0.3 µM (≈ 0.86 µg/mL) | 0.3 µM (≈ 0.86 µg/mL) | 0.3 µM (≈ 0.86 µg/mL) | – | –
CC(=O)N[C@H](CCCCN)C(=O)N[C@H](CC(C)C)C(=O)N[C@H](CCN)C(=O)N[C@H](CO)C(=O)N[C@H](CC(C)C)C(=O)N[C@H](CC(C)C)C(=O)N[C@H](CCN)C(=O)N[C@@H](C(=O)N[C@H](CC(C)C)C(=O)N[C@H](CO)C(=O)N[C@H](C)C(=O)N[C@H](C)C(=O)N[C@H](CCCCN)C(=O)N[C@H](CCN)C(=O)N[C@H](CCN)C(=O)N[C@H](CCCCN)C(=O)N[C@H](CC(C)C)C(=O)N[C@H](C)C(=O)N[C@@H](C(=O)N[C@H](CC(C)C)C(=O)N[C@H](CC(C)C)C(=O)N[C@H](CCN)C(=O)N[C@H](C)C(=O)N[C@H](CC(C)C)C(=O)N[C@H](CO)C(=O)N[C@H](CCN)C(N)=O)[C@H](C)O)[C@H](C)O [Peptide D89, Ac-KL(Dbu)SLL(Dbu)TLSAAK(Dbu)(Dbu)KLATLL(Dbu)ALS(Dbu)-amide] (Ac-[dK][dL][dDab][dS][dL][dL][dDab][dT][dL][dS][dA][dA][dK][dDab][dDab][dK][dL][dA][dT][dL][dL][dDab][dA][dL][dS][dDab]-NH2) | > 3000 µg/mL and > 1.11 mM | – | 0.7 µM (≈ 1.89 µg/mL) | 0.7 µM (≈ 1.89 µg/mL) | 0.7 µM (≈ 1.89 µg/mL) | 0.7 µM (≈ 1.89 µg/mL) | 0.7 µM (≈ 1.89 µg/mL) | 0.7 µM (≈ 1.89 µg/mL) | 0.7 µM (≈ 1.89 µg/mL) | – | –
CC(=O)N[C@H](CCCCN)C(=O)N[C@H](CC(C)C)C(=O)N[C@H](CCN)C(=O)N[C@H](CO)C(=O)N[C@H](CC(C)C)C(=O)N[C@H](CC(C)C)C(=O)N[C@H](CCN)C(=O)N[C@@H](C(=O)N[C@H](CC(C)C)C(=O)N[C@H](CO)C(=O)N[C@H](CCN)C(=O)N[C@H](C)C(=O)N[C@H](CCCCN)C(=O)N[C@H](C)C(=O)N[C@H](C)C(=O)N[C@H](CCCCN)C(=O)N[C@H](CC(C)C)C(=O)N[C@H](CCN)C(=O)N[C@@H](C(=O)N[C@H](CC(C)C)C(=O)N[C@H](CC(C)C)C(=O)N[C@H](CCN)C(=O)N[C@H](C)C(=O)N[C@H](CC(C)C)C(=O)N[C@H](CO)C(=O)N[C@H](CO)C(N)=O)[C@H](C)O)[C@H](C)O [Peptide D102, Ac-KL(Dbu)SLL(Dbu)TLS(Dbu)AKAAKL(Dbu)TLL(Dbu)ALSS-amide] (Ac-[dK][dL][dDab][dS][dL][dL][dDab][dT][dL][dS][dDab][dA][dK][dA][dA][dK][dL][dDab][dT][dL][dL][dDab][dA][dL][dS][dS]-NH2) | – | – | – | – | – | – | – | – | – | > 2000 µg/mL and > 708 µM | basically no hemolysis
CC(=O)N[C@H](CCCCN)C(=O)N[C@H](CC(C)C)C(=O)N[C@H](CN)C(=O)N[C@H](CO)C(=O)N[C@H](CC(C)C)C(=O)N[C@H](CC(C)C)C(=O)N[C@H](CN)C(=O)N[C@@H](C(=O)N[C@H](CC(C)C)C(=O)N[C@H](CO)C(=O)N[C@H](CN)C(=O)N[C@H](C)C(=O)N[C@H](CCCCN)C(=O)N[C@H](C)C(=O)N[C@H](C)C(=O)N[C@H](CCCCN)C(=O)N[C@H](CC(C)C)C(=O)N[C@H](CN)C(=O)N[C@@H](C(=O)N[C@H](CC(C)C)C(=O)N[C@H](CC(C)C)C(=O)N[C@H](CN)C(=O)N[C@H](C)C(=O)N[C@H](CC(C)C)C(=O)N[C@H](CO)C(=O)N[C@H](CN)C(N)=O)[C@H](C)O)[C@H](C)O [Peptide D105, Ac-KL(Dpr)SLL(Dpr)TLS(Dpr)AKAAKL(Dpr)TLL(Dpr)ALS(Dpr)-amide] | > 3000 µg/mL and > 1.15 mM | – | 0.8 µM (≈ 2.09 µg/mL) | 0.8 µM (≈ 2.09 µg/mL) | 3.0 µM (≈ 7.84 µg/mL) | 0.8 µM (≈ 2.09 µg/mL) | 3.0 µM (≈ 7.84 µg/mL) | 0.8 µM (≈ 2.09 µg/mL) | 1.5 µM (≈ 3.92 µg/mL) | – | –
